Reference: paper PMC10754118, “Lipophilic Nucleoside Triphosphate Prodrugs of Anti‐HIV Active Nucleoside Analogs as Potential Antiviral Compounds” (Advanced Science, 2023)
Where two headings read alike, the source gives them in different places.

Columns and labels:
HIV‐RT = target: T1, HIV‐RT (Human immunodeficiency virus type 1 group M subtype B, UniProt P03366); design: method as in PMID 37647547; conditions: cited from earlier work
T1 construct: HIV reverse transcriptase (HIV‐RT); purchased Roboklon

HIV‐2 [ROD] = experiment: Anti-HIV activity, HIV-2 in wild-type CEM/0 cells; type: cell-based; conditions: wild-type CEM/0 cells, mean ±SD n = 2–3, read-out: Antiviral activity CEM/0 HIV‐2 [ROD] EC50
HIV‐1 [HE] = experiment: Anti-HIV activity, HIV-1 in wild-type CEM/0 cells; type: cell-based; conditions: wild-type CEM/0 cells, mean ±SD n = 2–3, read-out: Antiviral activity CEM/0 HIV‐1 [HE] EC50
HIV‐2 [ROD)] = experiment: Anti-HIV activity, HIV-2 in thymidine kinase-deficient CEM/TK^− cells; type: cell-based
CEM/0 = experiment: in vitro; conditions: read-out: Toxicity CEM/0 CC50; 50% cytostatic concentration, CEM proliferation
Procedure: (§1) All TriPPPro‐compounds 10 and 20, as well as their parent nucleosides and the corresponding NTPs, were evaluated for their antiviral activity (expressed as EC50 values) against HIV‐1 (wild‐type CEM/0 cells) and HIV‐2 (wild‐type CEM/0 cells and thymidine kinase‐deficient (CEM/TK^−) cells) with concomitant determination of cytotoxicity in the same cell line (Table 3 ).

in vitro [1] = conditions: human
Procedure: The hydrolysis properties of TriPPPro‐compounds 10 and 20 were evaluated in phosphate buffer saline (PBS, pH 7.3), pig liver esterase (PLE) or CEM/0 cell extracts. In both cases, hydrolysis products were analyzed by means of analytical RP18‐HPLC and the hydrolysis half‐lives (Table 1 , t1/2 ) of TriPPPro‐compounds 10 and 20 were calculated after complete consumption of the starting materials.
The hydrolysis of TriPPPro‐compounds 10 and 20 was carried out with CEM/0 cell extracts as well. […]
Part 6. Enzyme-Catalyzed Hydrolysis of TriPPPro-compounds 10 and 20 in CEM Cell […]
First prepare 3.0 mM hydrolysis solutions of Tri PPPro-compounds 10 and 20 in DMSO and H2O: 21 µL stock solution (50 mM in DMSO) and 154 µL DMSO, and 175 µL Milli-Q water. Three-twelve different samples (20 µL 3.0 mM hydrolysis solutions) were prepared in 2 mL Eppendorf® vials. Then, aliquots of 50 µL human CEM cell extracts were added to these samples and the reaction was started. The samples were incubated at 37 °C in a thermomixer for different time periods. The reaction was stopped by addition of 150 µL MeOH and kept on ice for 5 min. After centrifugation at 14,000 rpm for 12 min, the supernatants were filtered (Chromafil RC-20/15 MS, 0.2 μm) and stored in liquid nitrogen. When testing, aliquots of 60 µL (injection volume) were analyzed by analytical HPLC (HPLC Method). The calculation of t1/2 was obtained using Origin again.
(§2) Part 7. Hydrolysis of TriPPPro-compounds 10 and 20 in human plasma.
µL 3.0 mM hydrolysis solutions) were prepared in 2 mL Eppendorf® vials.

pig liver esterase (PLE) = experiment: Hydrolysis with pig liver esterase (PLE); type: in vitro ADME; conditions: pig liver esterase (PLE) in PBS, PLE in PBS pH 7.3, 37 °C, read-out: PLE t 1/2 (converted)
Text: Next, TriPPPro‐compounds 10 and 20 were exposed to PLE in PBS (pH 7.3) and the half‐lives of TriPPPro‐compounds 10 and 20 are listed in Table 1. […] In contrast, the cleavage of the AB (C4) masking group in TriPPPro‐compounds 10by–hy and 10bz–hz was triggered by ester hydrolysis and yielded the corresponding γ‐alkylated nucleoside triphosphate derivatives 20 (Figure 3B,D) and 21 (Figures S17 and S18, Supporting Information), respectively. […] Moreover, a very small amount of NDPs was observed, probably due to a reaction involving a nucleophilic reaction at the γ‐phosphate or γ‐phosphonate moiety (pathways d and f, Scheme 5). […]
(§3) Part 4. Chemical Hydrolysis of TriPPPro-compounds 10 and 20.
Second prepare 1.9 mM hydrolysis
Part 5. Hydrolysis of TriPPPro-compounds 10 and 20 with PLE .
Second, 125 µL DMSO and 833 µL
62.5 µL of PLE solution in PBS (100
mixture was stored in the freezer (- 30 °C).
by analytical HPLC (HPLC Method).
similar to that for the chemical hydrolysis studies. […]
(§4) Then, aliquots of 50 µL human

[2] = Chemical hydrolysis in phosphate buffer saline (PBS, pH 7.3); type: physicochemical; conditions: PBS pH 7.3, 37 °C, read-out: PBS pH 7.3 t 1/2 (converted)
Procedure: as §3
Second prepare 1.9 mM hydrolysis […]
as §4

in vitro [3] = conditions: human, plasma
Procedure: First prepare 50 mM solutions of TriPPPro-compounds 10 and 20 in DMSO. […]
First prepare 3.0 mM hydrolysis solutions of Tri PPPro-compounds 10 and 20 in DMSO and H2O: 21 µL stock solution (50 mM in DMSO) and 154 µL DMSO, and 175 µL Milli-Q water. Three-twelve different samples (20 […]
The calculation of t1/2 was obtained using Origin again.
as §2
µL 3.0 mM hydrolysis solutions) were prepared in 2 mL Eppendorf® vials. Then, aliquots of 50 µL human Plasma (Heparin or Citrate) were added to these samples and the reaction was started. The samples were […]
incubated at 37 °C in a thermomixer for different time periods. The reaction was stopped by addition of 150 µL MeOH and kept on ice for 5 min. After centrifugation at 14,000 rpm for 22 min, the supernatants were filtered (Chromafil RC-20/15 MS, 0.2 μm) and stored in liquid nitrogen. When testing, aliquots of 25 0r 30 µL (injection volume) were analyzed by analytical HPLC (HPLC Method). The calculation of t1/2 was obtained using Origin […]
Part 8. Preparation of cell extracts and human plasma. […]

in vitro [4] = conditions: human, CEM/0 cells (wild-type CD4+ T-cells)
Procedure: as §1

[5] = thymidine kinase-deficient CEM/TK^− cells, mean ±SD n = 2–3; read-out: Antiviral activity CEM/TK^− HIV‐2 [ROD)] EC50

EC50 (HIV‐2 [ROD]) [µM] | EC50 (HIV‐1 [HE]) [µM] | EC50 (HIV‐2 [ROD)]; [5]) [µM] | Compound | CC50 (CEM/0) [µM] | also measured
 |  |  | Cc1cn([C@H]2C=C[C@@H](COP(=O)(O)OP(=O)(O)O)O2)c(=O)[nH]c1=O [d4TDP] |  | accepted by HIV‐RT as a substrate (HIV‐RT): accepted
1.02 ± 0.13 | 1.85 ± 2.14 | 0.85 ± 0.4 | Nc1nc(NC2CC2)c2ncn([C@H]3C=C[C@@H](COP(=O)(O)OP(=O)(O)OP(=O)(O)O)C3)c2n1 [ABCTP, reference compound] | > 100 | 
5.64 ± 4.45 | 4.73 ± 3.05 | > 100 | O=c1[nH]c(=O)n([C@H]2C[C@H](O)[C@@H](COP(=O)(O)OP(=O)(O)OP(=O)(O)O)O2)cc1/C=C/Br [BVDUTP, reference compound] | > 100 | 
 |  |  | Cc1cn([C@H]2C=C[C@@H](COP(=O)(O)OP(=O)(O)OP(=O)(O)O)O2)c(=O)[nH]c1=O [d4TTP] |  | accepted by HIV‐RT as a substrate (HIV‐RT): accepted
0.65 ± 0.13 | 0.84 ± 0.86 | > 100 | O=c1[nH]c(=O)n([C@H]2C[C@H](F)[C@@H](COP(=O)(O)OP(=O)(O)OP(=O)(O)O)O2)cc1Cl [FddClUTP, reference compound] | > 100 | 
0.043 ± 0.04 | 0.028 ± 0.015 | 0.025 ± 0.027 | Nc1nc(=O)n([C@@H]2CS[C@H](COP(=O)(O)OP(=O)(O)OP(=O)(O)O)O2)cc1F [FTCTP, reference compound] | > 100 | 
0.26 ± 0.32 | 0.15 ± 0.13 | 35.4 ± 43.9 | O=c1ccn([C@H]2C[C@H](F)[C@@H](COP(=O)(O)OP(=O)(O)OP(=O)(O)O)O2)c(=O)[nH]1 [FddUTP, reference compound] | > 100 | 
0.018 ± 0.009 | 0.0076 ± 0.0091 | 4.92 ± 2.43 | Cc1cn([C@H]2C[C@H](F)[C@@H](COP(=O)(O)OP(=O)(O)OP(=O)(O)O)O2)c(=O)[nH]c1=O [FLTTP, reference compound] | > 100 | 
 |  |  | CCCCCCCCCCCCCCCCCCOP(=O)(O)OP(=O)(O)OP(=O)(O)OCC1OC(n2cc(C)c(=O)[nH]c2=O)CC1N=[N+]=[N-] (centres unmarked) [20b, γ‐(alkyl‐C18)‐AZTTP] |  | half-life at 0.86 mM (in vitro [1]): > 30 h; EC50 (HIV‐2 [ROD]; Human immunodeficiency virus 2, CCRF-CEM): 0.03 ± 0.001 µM; half-life at 0.45 mM (pig liver esterase (PLE)): > 150 h; EC50 (HIV‐1 [HE]; Human immunodeficiency virus 1, CCRF-CEM): 0.028 ± 0.031 µM; half-life at 1.9 mM [2]: > 83.3 days; half-life at 0.86 mM (in vitro [3]; Plasma (Citrate) t 1/2): > 20 h; half-life at 0.86 mM (in vitro [3]; Plasma (Heparin) t 1/2): 3.7 h; EC50 (HIV‐2 [ROD)]; Human immunodeficiency virus 2, CEM-TK(-), thymidine kinase-deficient CEM/TK^− cells, mean ±SD n = 2–3; read-out: Antiviral activity CEM/TK^− HIV‐2 [ROD)] EC50): 4.1 ± 2.6 µM; CC50 (in vitro [4]): > 100 µM
